For assay [1], the system named is human rhabdosarcoma cells. Nature of the assay: p53 quantification, same procedure, rhabdosarcoma cells. To be noted: for P53: Table 9, in association with SiRNA Integrin alpha 3+RGDSPC+SiRNA Integrin beta 1+SiRNA Syndecan 1 (SEQ ID NO: 31, 32, 164 to 187). Format: cell-based. More on the design: P53: unit not given here. As for the experimental part:
(§1) The following starting materials and reagents were used: • Type-I collagen sponge was obtained from Sigma®. • PBS 1× was obtained from Gibco®. • MilliQ water: is water characterised in terms of resistivity (typically 18.2 MΩ·cm at 25° C.). • Low glucose Dulbecco's Modified Eagle Medium (DMEM) was obtained from Invitrogen® • Minimum Essential Medium Eagle without ascorbic acid (αMEM) was obtained from Invitrogen®. • All of the cell culture experiments were carried out without any serum in the medium for the first 8 hours of culture. • Osteosarcoma cells: MG63 cells were obtained from ATCC®. These cells were cultured in DMEM (Eagle's Minimum Essential Medium) medium supplemented with 10% fetal calf serum (FCS) and 1% penicillin/streptomycin. All cells were used at a low passage number (passage 10), were subconfluently cultured and were seeded at 10^4 cells/cm^2 for the purpose of the experiments. • Chondrosarcoma cells Hs819.T cells were obtained from ATCC®. These cells were cultured in DMEM (Eagle's Minimum Essential Medium) medium supplemented with 10% fetal calf serum (FCS) and 1% penicillin/streptomycin. All cells were used at a low passage number (passage 10), were subconfluently cultured and were seeded at 10^4 cells/cm^2 for the purpose of the experiments. • Rhabdomyosarcoma cells: A-673 cells were obtained from ATCC®. These cells were cultured in DMEM (Eagle's Minimum Essential Medium) medium supplemented with 10% fetal calf serum (FCS) and 1% penicillin/streptomycin. All cells were used at a low passage number (passage 10), were subconfluently cultured and were seeded at 10^4 cells/cm^2 for the purpose of the experiments. • Adenocarcinoma cells: HCC4006 cells were obtained from ATCC®. These cells were cultured in RPMI-1640 medium (obtained from ATCC®) supplemented with 10% fetal calf serum (FCS) and 1% penicillin/streptomycin. All cells were used at a low passage number (passage 10), were subconfluently cultured and were seeded at 10^4 cells/cm^2 for the purpose of the experiments. • CMFDA is a Cell Tracker Green obtained from Invitrogen®. • DAPI was obtained from Sigma®. • Fetal bovine serum (FBS) was obtained from Gibco®. • Penicillin/streptomycin was obtained from Invitrogen®. • The AlamarBlue® assay was obtained from Molecular Probes®. • Anti phospho-p53 antibody was obtained from Santa Cruz Biotechnology®, • Anti pRB antibody was obtained from Santa Cruz Biotechnology®, • Monoclonal anti-integrin (extracellular domain) αv, α5, α3, α4, β1, β3, β5 and β9 antibodies were obtained from Santa Cruz Biotechnology®, • Cell cytoskeletal filamentous actin (F-actin) was visualized by Alexa Fluor® 488 phalloidin Sigma® labeling. • Monoclonal anti-vinculin antibody (clone hVIN-1, produced in mouse) was obtained from Sigma®.
(§2) • All of the peptides were synthetized using conventional solution and/or solid phase peptide synthesis methods. • All of the experiments were performed with a concentration of 400 ng/mL of GFR-binding compound(s) as defined herein. • All cell culture experiments were performed with cultures on plastic coated with type-I collagen in order to mimic the physiological conditions of the human body. • The compositions of pharmaceutical compositions used in the examples below are summarized in the following table:
(§3) The cells were first fixed for 20 min with 4% paraformaldehyde/PBS at 4° C. After fixation, the cells were permeabilized in PBS containing 1% Triton X-100 for 15 min. Protein immunofluorescent visualization was performed by first treating the cells with 1% (v/v) specific monoclonal antibodies for 1 hour at 37° C. Then the samples were incubated with Alexa Fluor® 568 or 647 (F(ab′)2 fragment of IgG(H+L)) during 30 min at room temperature. The cell nuclei were counterstained in 20 ng/mL DAPI for 10 min at room temperature.
(§4) For this type of quantification the freeware image analysis ImageJ® software was used. […]

Assay [2] relates to human rhabdosarcoma cells. Nature of the assay: pRB quantification, same procedure, rhabdosarcoma cells. Format: cell-based. To be noted: for pRB: Table 9, in association with SiRNA Integrin alpha 3+RGDSPC+SiRNA Integrin beta 1+SiRNA Syndecan 1 (SEQ ID NO: 31, 32, 164 to 187). As for the experimental part:
as §1, §2, §3, §4

The mark [3] stands for this setting: Table 8, in association with SiRNA Integrin alpha 3, v, 4 and SiRNA Integrin beta 1.
The mark [4] stands for this setting: Table 5, cyclic GFR-binding peptide in association with SiRNA Integrin alpha 3+RGDSPC+SiRNA Integrin beta 1+SiRNA Syndecan 1, 400 ng/mL.

Where no end group is shown, it is not given here.

As to “APTGGSATSMLYYDKGVVTYLRKHRGGVVK (Non-cyclic GFR-binding peptide) [SEQ ID NO: 127]”, the “P53 (%)” value in assay [1] (setting [3]) is recorded as 33%. Besides, the “pRB (%)” value in assay [2] (setting [3]) is recorded as 16%.
For “APTLLNAISMLYFNDKQQIILKKYRLLVVR (Non-cyclic GFR-binding peptide) [SEQ ID NO: 126]” the same measures were 41% and 8%.
With “APVAAKPLSMLYVDKGVVTYDHHKDAAVEE (Non-cyclic GFR-binding peptide) [SEQ ID NO: 132]”, in assay [1] (setting [3]), the “P53 (%)” value was found to be 38%. Also, in assay [2] (setting [3]), the “pRB (%)” value is 9%.
Regarding “APVKMEPLPTVYYDDMGVPTEQLSNDMVEESGSLDDMGVPT (also: cyclic, ring not given here) [SEQ ID NO: 38225]”, the “P53 (%)” value in assay [1] (setting [4]) was 49%. Besides, the “pRB (%)” value in assay [2] (setting [4]) amounted to 9%.
Take “CAAAPASSSVPARLSPISILYIAAAYKQYEDM (Non-cyclic GFR-binding peptide) [SEQ ID NO: 185]”: in assay [1], the P53 is on record as 47. In assay [2], this sequence showed a pRB of 8.
Consider “CAAPASSSVPARLSPISILYIDAANNVVYKQYEDMVVE (Non-cyclic GFR-binding peptide) [SEQ ID NO: 182]”, for which the P53 in assay [1] is 41. Also, the pRB in assay [2] was 8.
The sequence “CAAPASSSVPARLSPISILYIDAANNVVYKQYEDMVVEASG (Non-cyclic GFR-binding peptide) [SEQ ID NO: 181]” had a P53 in assay [1] of 45. In assay [2], this sequence yielded a pRB of 9.
For “CAAPASSSVPARLSPISLLYIDAANNVVYKQYEDM (Non-cyclic GFR-binding peptide) [SEQ ID NO: 183]” the same measures were 44 and 13.
The sequence “CASAAPSSVPQALEPLPIVYYVGRTPKVEQLSNMIVRSSK (Non-cyclic GFR-binding peptide) [SEQ ID NO: 175]” yielded a P53 in assay [1] of 45. In assay [2], this sequence showed a pRB of 7.
“CGIPEPSSVPEKMSSLSILFFDENKNVVLKVYPNM (Non-cyclic GFR-binding peptide) [SEQ ID NO: 179]”: the P53 in assay [1] was 40. The sequence also had a pRB in assay [2] of 11.
For “CGIPEPSSVPEKTSSLSLLFFDENKNVVLKVYPNM (Non-cyclic GFR-binding peptide) [SEQ ID NO: 180]”, the P53 in assay [1] amounted to 29. In addition, the pRB in assay [2] is recorded as 9.
In assay [1], “CKIPKASSVPTELEPLPIVYYVGRKPKVEQLSNMIVRS (Non-cyclic GFR-binding peptide) [SEQ ID NO: 174]” came in with a P53 of 40. The sequence also showed a pRB in assay [2] of 6.
As for “CPARLSPISLLYIDAANNVVYKQYEDM (Non-cyclic GFR-binding peptide) [SEQ ID NO: 184]”, the P53 in assay [1] is 39. Also, the pRB in assay [2] worked out at 11.
As for “CTVPKPSSAPTQLSPISILYIDAANNVVYKQYEDMVVRA (Non-cyclic GFR-binding peptide) [SEQ ID NO: 187]”, the P53 in assay [1] is on record as 42. Besides, in assay [2], the pRB worked out at 9.
Consider “CVPQRLSPISILYIDAANNVVYKQYE (Non-cyclic GFR-binding peptide) [SEQ ID NO: 186]”, for which the P53 in assay [1] is 38. In addition, the pRB in assay [2] is 12.
The sequence “CVPTEERSVKVAKVRIKPHQGQHKEVQV (Non-cyclic GFR-binding peptide) [SEQ ID NO: 176]” gave a P53 in assay [1] of 33. Besides, in assay [2], the pRB stood at 7.
As to “CVPTEESNITMQIMRIKPHQGQHIGEMSFL (Non-cyclic GFR-binding peptide) [SEQ ID NO: 177]”, in assay [1], the P53 was found to be 43. In assay [2], this sequence returned a pRB of 8.
For “EPSSSRVRLEPLTTLYYGGGGGGGEQLSNVVEEHSKDKGVVTY (also: cyclic peptide, ring closure not given here) [SEQ ID NO: 38224]”, in assay [1] (setting [4]), the “P53 (%)” value is recorded as 46%. In addition, the “pRB (%)” value in assay [2] (setting [4]) is listed as 8%.
With “EPSSVSQAAEPLPIVYYRIKPHQGQHEQLSNMIVKSSKSSDDMGVPT (also: cyclic peptide, ring closure not given here) [SEQ ID NO: 38226]”, in assay [1] (setting [4]), the “P53 (%)” value amounted to 29%. For the same sequence, the “pRB (%)” value in assay [2] (setting [4]) came out at 12%.
In turn, “GTPGPAPTKLSAISMLYLDSSNNVILKKYR (Non-cyclic GFR-binding peptide) [SEQ ID NO: 166]” registered a P53 in assay [1] of 37. The pRB in assay [2] amounted to 10.
Take “GTPGPAPTKLSAISMLYLDSSNNVILRKHR (Non-cyclic GFR-binding peptide) [SEQ ID NO: 165]”: in assay [1], the P53 is on record as 42. For the same sequence, in assay [2], the pRB is on record as 9.
Take “GTPGPAPTQLSPISVLYKDDSSNVILKYHY (Non-cyclic GFR-binding peptide) [SEQ ID NO: 31]”: the P53 in assay [1] was determined as 34. The same sequence registered a pRB in assay [2] of 5.
As for “GTPGPASSAVSQELSAISMLYLGGGLKNYQDM (Non-cyclic GFR-binding peptide) [SEQ ID NO: 32]”, the P53 in assay [1] amounted to 46. The same sequence had a pRB in assay [2] of 7.
Regarding “GTPGPKASSVPTELSPISTLYKDENEKVVLKYHYDM (Non-cyclic GFR-binding peptide) [SEQ ID NO: 168]”, the P53 in assay [1] is 51. In assay [2], this sequence registered a pRB of 13.
For “GTPGPKASSVPTELSPISTLYKDENEKVVLKYHYDMVVEGSGSR (Non-cyclic GFR-binding peptide) [SEQ ID NO: 167]” the same measures were 41 and 11.
As for “GTPGPPKPSSAPTQLNAISMLYFGGGGGLKKYRDMQHN (Non-cyclic GFR-binding peptide) [SEQ ID NO: 169]”, in assay [1], the P53 was determined as 37. Besides, the pRB in assay [2] is 8.
For “GTPGPPSSAPTQLSATSVLYYDDSSNVILRKHRMIVKS (Non-cyclic GFR-binding peptide) [SEQ ID NO: 164]” the same measures were 47 and 10.
On to “GTPGPRNVQCRPTQVQLSAISTLYLAAALKNYQTLE (Non-cyclic GFR-binding peptide) [SEQ ID NO: 173]”, for which the P53 in assay [1] is recorded as 37. This sequence also displayed a pRB in assay [2] of 15.
“GTPGPRNVQCRPTQVQLSAISTLYLEIVRKKPLKNYQTLEDH (Non-cyclic GFR-binding peptide) [SEQ ID NO: 172]” gave a P53 in assay [1] of 33. This sequence also had a pRB in assay [2] of 12.
“IPKASSAPVGQRPVQMRKIDKGVVTYKKATVSSVEESGSLDKGVVTY (not fully specified; also: cyclic, mode of cyclisation not given here) [SEQ ID NO: 38218]”: in assay [1] (setting [4]), the “P53 (%)” value worked out at 36%. The “pRB (%)” value in assay [2] (setting [4]) stood at 12%.
For “KASSSRVKMSNITVQIMRIKPHQGQHIGEMSVVEEHASGSHDKGVVTY (not fully specified; also: cyclic, mode of cyclisation not given here) [SEQ ID NO: 38222]” the same measures were 52% and 15%.
For “KASSVPQEERPVQMRKIGGGGGGGKKATVMIVRSSKSSDDMGVPT (not fully specified; also: cyclic, mode of cyclisation not given here) [SEQ ID NO: 38219]” the same measures were 38% and 15%.
For “PTSSAPTDLRSVKMAKVEIVRKKPIFKEVQVDMVVKASGDKGVVTY (not fully specified; also: cyclic peptide) [SEQ ID NO: 38221]” the same measures were 48% and 11%.
Regarding “SRVAARSVKMAKVGGGGGGGKEVQVAAEEH (Non-cyclic GFR-binding peptide) [SEQ ID NO: 136]”, the “P53 (%)” value in assay [1] (setting [3]) is recorded as 38%. Also, in assay [2] (setting [3]), the “pRB (%)” value stood at 10%.

For the origin of these results see patent US20190290729A1, “PHARMACEUTICAL ASSOCIATION OF GROWTH FACTOR RECEPTOR AGONIST AND ADHESION PROTEIN INHIBITOR FOR CONVERTING A NEOPLASTIC CELL INTO A NON-NEOPLASTIC CELL AND USES THEREOF” (HISTIDE AG, priority 2015, published 2019).
